Each compound was assayed on BN-130 strain (assay: Susceptibility of the BN-130 strain to antibiotics).
Type: cell-based, Pseudomonas stutzeri

Compound	Susceptibility to antibiotics
O=C(N[C@H](CO)[C@H](O)c1ccc([N+](=O)[O-])cc1)C(Cl)Cl [Chloramphenicol]	Susceptible to a medium degree
CC1(C)S[C@@H]2[C@H](NC(=O)Cc3ccccc3)C(=O)N2[C@H]1C(=O)O [Penicillin]	Resistant
CN(C)[C@@H]1C(O)=C(C(N)=O)C(=O)[C@@]2(O)C(O)=C3C(=O)c4c(O)cccc4[C@@](C)(O)[C@H]3C[C@@H]12 [Tetracycline]	Susceptible
CC1(C)S[C@@H]2[C@H](NC(=O)[C@H](N)c3ccccc3)C(=O)N2[C@H]1C(=O)O [aminobenzylpenicillin]	Resistant
O=C(Cc1cccs1)N[C@@H]1C(=O)N2C(C(=O)[O-])=C(C[n+]3ccccc3)CS[C@H]12 [cephaloridine]	Resistant
NC[C@H]1O[C@H](O[C@H]2[C@H](O)[C@@H](O[C@H]3O[C@H](CO)[C@@H](O)[C@H](N)[C@H]3O)[C@H](N)C[C@@H]2N)[C@H](O)[C@@H](O)[C@@H]1O [kanamycin]	Susceptible to a medium degree
CCn1cc(C(=O)O)c(=O)c2ccc(C)nc21 [nalidixic acid]	Susceptible
[H]/N=C(/N)N[C@H]1[C@H](O)[C@@H](O)[C@H](O[C@@H]2O[C@@H](C)[C@](O)(C=O)[C@H]2O[C@@H]2O[C@@H](CO)[C@H](O)[C@@H](O)[C@@H]2NC)[C@@H](N/C(N)=N\[H])[C@@H]1O [streptomycin]	Susceptible to a medium degree
colistin	Susceptible
polymixin	Susceptible
